Tests used:
[1] = test system: rat; conditions: PubChem.gov, cited from earlier work; for LD50: rat, route not stated
[2] = test system: rat; assay: LD50 reported by PubChem.gov, rat; conditions: for human equivalent of LD50: LD50 divided by 6.2 (rat), times 65 kilograms
[3] = test system: mice; conditions: PubChem.gov, cited from earlier work
[4] = test system: mice; assay: LD50 reported by PubChem.gov, human conversion with the mouse factor 12.3; conditions: LD50 divided by 12.3, times 65 kilograms
Text: Much of the research for toxicity and efficacy studies is preclinical, which necessitates a conversion of preclinical data to human equivalent data for interpretation of implications of preclinical data to clinical studies. […] For conversion of preclinical data from mice to human, divide the mg/kg dosage by 12.3. One would then multiply the result by an approximated average weight in kilograms for human clinical subjects to establish a preliminary clinical dosage. For example, if the preclinical dosage indicating drug efficacy were 100 mg/kg, this dosage would be divided by 12.3 to get 8.13 mg/kg, which would then be multiplied by an average weight in kilograms designated for the clinical study. For an average clinical subject weight of 65 kilograms, the original 100 mg/kg preclinical dosage would translate to 528 mg, which would be the preliminary dosage for clinical studies. For conversion of preclinical data from rat to human, the animal dosage would be divided by 6.2, then multiplied by the average subject weight in kilograms for the clinical study.
To convert this preclinical data to human equivalent data, 2.2 grams divided by 12.3 is 179 mg, times 65 kilograms for a human subject weighing 65 kg is approximately 11.6 grams.
For human equivalency dosage, 100 mg/kg divided by 12.3 is 8.13 mg/kg, times 65 for a 65-kilogram clinical subject is 528 mg/kg. […]

[5] = test system: weight drop contusion TBI; conditions: 100 mg/kg to mice after weight drop contusion TBI; cited from earlier work
[6] = test system: platelets; conditions: cited from earlier work
[7] = test system: TBI; conditions: 100 mg/kg, rats; cited from earlier work
[8] = test system: human lymphocytes; conditions: human lymphocytes in culture; cited from earlier work
[9] = test system: rats; conditions: up to 5 grams per kilogram for 60 days; cited from earlier work
[10] = test system: mice; conditions: up to 5 grams per kilogram for 60 days; cited from earlier work

Nc1ncnc2c1ncn2[C@@H]1O[C@H](COP(=O)([O-])OP(=O)([O-])OP(=O)([O-])[O-])[C@@H](O)[C@H]1O.[Mg+2].[Mg+2] [ATP, Adenosine triphosphate magnesium]
LD50 [1]: greater than 2 grams per kilogram | human equivalent of LD50 [2]: > 21 grams

N[C@@H](CCC(=O)N[C@@H](CS)C(=O)NCC(=O)O)C(=O)O [GSH, Glutathione]
LD50, intravenous ([3]; intravenous): 2.2 grams per kilogram of animal weight | human equivalent of intravenous LD50 [4]: approximately 11.6 grams

CC(=O)O[C@H](CC(=O)[O-])C[N+](C)(C)C [acetyl L-carnitine, Acetyl L-carnitine]
LD50, intravenous ([1]; intravenous, rat species): 1,265 mg/kg | human equivalent dosage of intravenous LD50 ([2]; LD50 divided by 6.2, times 65 for a 65-kilogram human patient): 13.2 grams

COc1cc(/C=C/C(=O)CC(=O)/C=C/c2ccc(O)c(OC)c2)ccc1O [curcumin, Curcumin]
LD50 ([3]; route not stated): greater than 2 grams per kilogram of animal weight | recovery after TBI [5]: Major improvements in recovery were noted | production of thromboxane A2 by platelets [6]: reduced the production of thromboxane A2 by platelets | human equivalent of LD50 [4]: approximately 10.6 grams

Oc1ccc(C=Cc2cc(O)cc(O)c2)cc1 [resveratrol, 3,5,4′-Trihydroxystilbene]
secondary injury from TBI [7]: significantly attenuated secondary injury from TBI | genetic damage induced by permethrin [8]: diminishes genetic damage induced by permethrin

NCCS(=O)(=O)O [taurine]
LD50 [1]: greater than 7 grams per kilogram | human equivalent of LD50 [2]: 74 grams

Fulvic acid
toxicity or genotoxicity [9]: No toxicity or genotoxicity was found | toxicity or genotoxicity [10]: No toxicity or genotoxicity was found

Reference: patent US20250099382A1, “Colloidal suspension of nutraceutical ingredients to treat traumatic brain injury” (priority 2023, published 2025)
